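Cultured in 96-well plates, cells were exposed to test compound for 48 hours across five concentrations. TGI is the concentration that stops growth completely.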
Key:
Experiment in all cases: DTP human tumour cell line panel, 48 h
CCRF-CEM leukemia = tested on: CCRF-CEM leukemia
IGROV1 ovarian = tested on: IGROV1 ovarian
MDA-MB-435 = tested on: MDA-MB-435
NCI/ADR-RES ovarian = tested on: NCI/ADR-RES ovarian
SF-539 CNS = tested on: SF-539 CNS
SNB-19 CNS = tested on: SNB-19 CNS
SNB-75 CNS = tested on: SNB-75 CNS
TK-10 renal = tested on: TK-10 renal
DLD-1 colon = tested on: DLD-1 colon
DMS 114 small cell lung = tested on: DMS 114 small cell lung
M19-MEL melanoma = tested on: M19-MEL melanoma
SNB-78 CNS = tested on: SNB-78 CNS

SMILES: Oc1cc(O)c2c(c1)O[C@H](c1ccc(O)c(O)c1)[C@@H](O)C2
- TGI (CCRF-CEM leukemia): > 100 µM
- TGI (IGROV1 ovarian): > 100 µM
- TGI (MDA-MB-435): > 100 µM
- TGI (NCI/ADR-RES ovarian): > 100 µM
- TGI (SF-539 CNS): > 100 µM
- TGI (SNB-19 CNS): > 100 µM
- TGI (SNB-75 CNS): > 100 µM
- TGI (TK-10 renal): > 100 µM

SMILES: Cc1cccc2c(N)c3cccc(C(=O)NCC[N+](C)(C)Cc4ccc([N+](=O)[O-])n4C)c3nc12
- TGI (CCRF-CEM leukemia): 41.8 µM
- TGI (IGROV1 ovarian): 58.4 µM
- TGI (MDA-MB-435): > 85.2 µM
- TGI (NCI/ADR-RES ovarian): 98.9 µM
- TGI (SF-539 CNS): 52.5 µM
- TGI (SNB-19 CNS): > 100 µM
- TGI (SNB-75 CNS): 43.2 µM
- TGI (TK-10 renal): > 100 µM

SMILES: O=C(N/N=C(/COc1ccccc1)N=Cc1ccncc1)c1ccncc1
- TGI (CCRF-CEM leukemia): > 100 µM
- TGI (IGROV1 ovarian): > 100 µM
- TGI (MDA-MB-435): > 100 µM
- TGI (NCI/ADR-RES ovarian): > 100 µM
- TGI (SF-539 CNS): > 100 µM
- TGI (SNB-19 CNS): > 100 µM
- TGI (SNB-75 CNS): > 100 µM
- TGI (TK-10 renal): > 100 µM

SMILES: O=C(Nc1ccccc1)c1cc2ccccc2c(N=Nc2cccc([N+](=O)[O-])c2)c1O
- TGI (CCRF-CEM leukemia): > 100 µM
- TGI (IGROV1 ovarian): > 100 µM
- TGI (MDA-MB-435): > 100 µM
- TGI (NCI/ADR-RES ovarian): > 100 µM
- TGI (SF-539 CNS): > 100 µM
- TGI (SNB-19 CNS): 97.2 µM
- TGI (SNB-75 CNS): > 100 µM
- TGI (TK-10 renal): > 100 µM

SMILES: COc1c(C)c(C/C=C(\C)CC/C=C(\C)CC/C=C(\C)CCC=C(C)C)c(OC)c(OC)c1OC
- TGI (CCRF-CEM leukemia): > 100 µM
- TGI (IGROV1 ovarian): > 100 µM
- TGI (MDA-MB-435): > 100 µM
- TGI (NCI/ADR-RES ovarian): > 100 µM
- TGI (SF-539 CNS): > 100 µM
- TGI (SNB-19 CNS): > 100 µM
- TGI (SNB-75 CNS): > 100 µM
- TGI (TK-10 renal): > 100 µM

SMILES: CCN(CC)CC1CCCCN1CC(=O)N1c2cc(Cl)ccc2NC(=O)CC1C (configuration not stated)
- TGI (CCRF-CEM leukemia): > 100 µM
- TGI (DLD-1 colon): > 100 µM
- TGI (DMS 114 small cell lung): > 100 µM
- TGI (M19-MEL melanoma): > 100 µM
- TGI (SF-539 CNS): > 100 µM
- TGI (SNB-19 CNS): > 100 µM
- TGI (SNB-75 CNS): > 100 µM
- TGI (SNB-78 CNS): > 100 µM
- TGI (TK-10 renal): > 100 µM

SMILES: O=Cc1c2c(cc3c1CC1(C3)Cc3cc4c(c(C=O)c3C1)CCCC4)CCCC2
- TGI (CCRF-CEM leukemia): 30.2 µM
- TGI (IGROV1 ovarian): > 31.6 µM
- TGI (MDA-MB-435): > 31.6 µM
- TGI (NCI/ADR-RES ovarian): > 31.6 µM
- TGI (SF-539 CNS): > 31.6 µM
- TGI (SNB-19 CNS): > 100 µM
- TGI (SNB-75 CNS): > 100 µM
- TGI (TK-10 renal): > 31.6 µM

SMILES: CC(=O)Nc1ccc(-c2nnc(SCC(=O)Nc3cccc(C)c3)o2)cc1
- TGI (CCRF-CEM leukemia): > 100 µM
- TGI (DLD-1 colon): 23.1 µM
- TGI (DMS 114 small cell lung): 6.94 µM
- TGI (IGROV1 ovarian): 24.7 µM
- TGI (M19-MEL melanoma): 24.9 µM
- TGI (SF-539 CNS): 27.8 µM
- TGI (SNB-75 CNS): 45.8 µM
- TGI (SNB-78 CNS): 31.1 µM
- TGI (TK-10 renal): 29.2 µM

SMILES: CN(C)CCCNC(=O)N/N=C/c1ccc(O)cc1
- TGI (CCRF-CEM leukemia): > 100 µM
- TGI (IGROV1 ovarian): > 100 µM
- TGI (MDA-MB-435): > 100 µM
- TGI (NCI/ADR-RES ovarian): > 100 µM
- TGI (SF-539 CNS): > 100 µM
- TGI (SNB-19 CNS): > 100 µM
- TGI (SNB-75 CNS): > 100 µM
- TGI (TK-10 renal): > 100 µM

SMILES: O=C(O)c1cc(N=Nc2ccc([N+](=O)[O-])cc2)ccc1O
- TGI (CCRF-CEM leukemia): > 100 µM
- TGI (IGROV1 ovarian): > 100 µM
- TGI (MDA-MB-435): > 100 µM
- TGI (NCI/ADR-RES ovarian): > 100 µM
- TGI (SF-539 CNS): > 100 µM
- TGI (SNB-19 CNS): > 100 µM
- TGI (SNB-75 CNS): > 100 µM
- TGI (TK-10 renal): 70 µM

SMILES: COc1ccccc1-n1cnc2c1NC(C)(C)N=C2C(N)=O
- TGI (CCRF-CEM leukemia): > 100 µM
- TGI (IGROV1 ovarian): > 100 µM
- TGI (MDA-MB-435): > 100 µM
- TGI (NCI/ADR-RES ovarian): > 100 µM
- TGI (SF-539 CNS): > 100 µM
- TGI (SNB-19 CNS): > 100 µM
- TGI (SNB-75 CNS): > 100 µM
- TGI (TK-10 renal): > 100 µM

SMILES: CC(C)C[S+]1C2=C([O-])CC(C)(C)CC2=Nc2ccccc21 (configuration not stated)
- TGI (CCRF-CEM leukemia): > 100 µM
- TGI (IGROV1 ovarian): > 100 µM
- TGI (MDA-MB-435): > 100 µM
- TGI (NCI/ADR-RES ovarian): > 100 µM
- TGI (SF-539 CNS): > 100 µM
- TGI (SNB-19 CNS): > 100 µM
- TGI (SNB-75 CNS): > 100 µM
- TGI (TK-10 renal): > 100 µM

SMILES: Cc1ccc(S(=O)(=O)NC(=O)C2S(=O)(=O)OCCOS2(=O)=O)cc1
- TGI (CCRF-CEM leukemia): > 100 µM
- TGI (DLD-1 colon): > 100 µM
- TGI (M19-MEL melanoma): > 100 µM
- TGI (SF-539 CNS): > 100 µM
- TGI (SNB-19 CNS): > 100 µM
- TGI (SNB-75 CNS): > 100 µM
- TGI (SNB-78 CNS): > 100 µM
- TGI (TK-10 renal): > 100 µM

SMILES: COC(CNC(=O)CNC(=O)c1ccc(C(F)(F)F)cc1)OC
- TGI (CCRF-CEM leukemia): > 100 µM
- TGI (IGROV1 ovarian): > 100 µM
- TGI (MDA-MB-435): > 100 µM
- TGI (NCI/ADR-RES ovarian): > 100 µM
- TGI (SF-539 CNS): > 100 µM
- TGI (SNB-19 CNS): > 100 µM
- TGI (SNB-75 CNS): > 100 µM
- TGI (TK-10 renal): > 100 µM

SMILES: CC(=O)N1C(C(=O)NN2CCOCC2)CSC1c1ccccc1 (configuration not stated)
- TGI (CCRF-CEM leukemia): > 100 µM
- TGI (IGROV1 ovarian): > 100 µM
- TGI (MDA-MB-435): > 100 µM
- TGI (NCI/ADR-RES ovarian): > 100 µM
- TGI (SF-539 CNS): > 100 µM
- TGI (SNB-19 CNS): > 100 µM
- TGI (SNB-75 CNS): > 100 µM
- TGI (TK-10 renal): > 100 µM

SMILES: c1ccc(-c2cnc(SC(c3ccccc3)c3ccccc3)[nH]2)cc1
- TGI (CCRF-CEM leukemia): > 100 µM
- TGI (IGROV1 ovarian): > 100 µM
- TGI (MDA-MB-435): > 100 µM
- TGI (NCI/ADR-RES ovarian): 85.4 µM
- TGI (SF-539 CNS): > 100 µM
- TGI (SNB-19 CNS): > 100 µM
- TGI (SNB-75 CNS): > 100 µM
- TGI (TK-10 renal): > 100 µM

SMILES: CCCCn1c(-c2ccccc2)cs/c1=N\N=C1C=C(C(C)(C)C)C(=O)C(C(C)(C)C)=C1
- TGI (CCRF-CEM leukemia): > 100 µM
- TGI (DMS 114 small cell lung): > 100 µM
- TGI (IGROV1 ovarian): > 100 µM
- TGI (M19-MEL melanoma): > 100 µM
- TGI (SF-539 CNS): > 100 µM
- TGI (SNB-19 CNS): > 100 µM
- TGI (TK-10 renal): > 100 µM
